Results published in patent US12662688B2, “Site-selective deuteration of amino acids through dual protein catalysis” (Wisconsin Alumni Research Foundation, priority 2022, dated 2026).

Key:
DsaD-MfnH protein pair = experiment: Analytical-scale H/D exchange with purified DsaD and MfnH; type: biochemical, Streptomyces scopuliridis; Streptomyces drozdowiczii; conditions: 5 μM DsaD, 50 μM MfnH (1:10 DsaD:MfnH)
Procedure: FIG. 4. Deuteration of L-Leu using purified DsaD (5 μM) and MfnH (50 μM) using the described procedure for analytical-scale H/D exchange. Results are reported as the average of 2 trials.
(§1) General procedure analytical scale deuteration reactions: α/β deuteration reactions were performed as follows. A 1 mL Eppendorf tube was charged with amino acid (10-20 mM final concentration), Na3PO4 buffer pD 8.4 (50 mM final concentration), PLP (100 μM final concentration), purified enzymes or appropriate lysate and D2O and to the appropriate final volume (typically 50 μL). Reactions were carried out at 37° C. for 8 h and quenched by the addition of 3 volumes of acetonitrile. Precipitated biomolecules were pelleted by centrifugation (16,000×g, 10 min) and samples were processed as described below.
In the original report by Li et al. describing DsaE, a homologous enzyme with 42% sequence identity, MfnH, was disclosed.^29 This homolog could operate with DsaD to catalyze Cβ-epimerization of Ile. Here, we test the ability of MfnH to productively catalyze H/D exchange reactions. We performed reactions with purified MfnH, DsaD (1:10 DsaD:MfnH), and L-Leu under the conditions described for DsaD/E-catalyzed reactions (FIG. 4). […] We also attempted isolation of MfnO, the native BCAT partner of MfnH, but produced only apo-enzyme.

DsaD/E lysates = experiment: Analytical-scale H/D exchange with pre-dialyzed DsaD and DsaE lysates; type: biochemical, Streptomyces scopuliridis; conditions: lysates pre-dialyzed into D2O—Na3PO4 buffer pD 8.4, 99.9% D
Procedure: FIG. 6. Deuteration of L-Leu under conditions with minimal H2O contamination (99.9% D) using DsaD and DsaE lysates that were pre-dialyzed in 50 mM D2O—Na3PO4 (pD 8.4). Reactions performed using the described procedure for analytical-scale H/D exchange. Results are reported as the average of 3 trials.
as §1
Exchange of DsaD and DsaE into D2O—Na3PO4 buffer system: When necessary, clarified lysates and purified proteins were exchanged into a D2O-based buffer system containing 50 mM Na3PO4 (−) using a Slide-A-Lyzer MINI dialysis device (ThermoFisher) with a 3 KDa cutoff. A maximum of 500 μL of lysate or protein was added to the device and exchanged 3 times into the D2O buffer at 4° C. before setting up reactions.

[1] = biological target: T1, DsaE with native E. coli BCATs (Escherichia coli, UniProt P0AB80); experiment: Analytical-scale H/D exchange with DsaE lysate only; type: biochemical; conditions: 5% v/v DsaE lysate, no DsaD
T1 construct: DsaE can utilize native BCATs present at biological concentrations (without overexpression) to perform H/D exchange; made in house; host or cells: Clarified lysate of E. coli BL21(DE3) overexpressing DsaE; the BCAT is endogenous to the host
T1 sequence (P0AB80 2-309 E236D): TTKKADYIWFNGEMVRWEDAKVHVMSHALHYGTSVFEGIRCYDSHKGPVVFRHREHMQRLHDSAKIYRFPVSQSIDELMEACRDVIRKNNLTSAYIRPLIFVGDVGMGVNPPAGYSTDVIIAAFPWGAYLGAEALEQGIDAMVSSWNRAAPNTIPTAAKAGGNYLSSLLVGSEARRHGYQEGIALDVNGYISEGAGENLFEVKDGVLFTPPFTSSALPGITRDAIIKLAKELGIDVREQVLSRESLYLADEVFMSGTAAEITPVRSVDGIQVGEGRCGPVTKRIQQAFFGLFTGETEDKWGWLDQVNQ
T1 sequence (as listed by the source, change not shown): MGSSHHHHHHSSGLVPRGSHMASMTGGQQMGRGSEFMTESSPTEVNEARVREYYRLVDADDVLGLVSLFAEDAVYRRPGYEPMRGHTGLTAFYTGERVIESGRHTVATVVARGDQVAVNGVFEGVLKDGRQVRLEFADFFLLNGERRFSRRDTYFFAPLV
Procedure: (§2) FIG. 7. Deuteration of L-Leu using only DsaE lysate (5% v/v) with minimal H2O contamination (99.9% D). Reactions were performed using the described procedure for analytical-scale H/D exchange. Results are reported as the average of 3 trials.
(§3) In another version, DsaE operates with a BCAT enzyme other than DsaD to effect a Cα/Cβ-exchange. For example, DsaE clarified cell lysates (CCLs) can achieve Cα and Cβ-deuteration without the addition of the aminotransferase DsaD. Instead of relying on DsaD as a partner for catalysis, DsaE promiscuously interacts with native branched-chain amino acid aminotransferases (BCATs) expressed by E. coli (SEQ ID NO: 2) for primary metabolism. No overexpression of BCAT is necessary to induce this activity. We simply overexpressed partner protein DsaE and generated a clarified cell lysate from the resulting E. coli. […] The reaction is as follows:
(§4) General procedure analytical scale deuteration reactions: α/β deuteration reactions were performed as follows. A 1 mL Eppendorf tube was charged with amino acid (10-20 mM final concentration), Na3PO4 buffer pD 8.4 (50 mM final concentration), PLP (100 μM final concentration), purified enzymes or appropriate lysate and D2O and to the appropriate final volume (typically 50 μL). Reactions were carried out at 37° C. for 8 h and quenched by the addition of 3 volumes of acetonitrile. […]

[2] = biological target: T2, DsaE with native E. coli BCATs (Escherichia coli, UniProt P0AB80, E236D); experiment: as above; type: biochemical; conditions: 5% v/v DsaE lysate, no DsaD
T2 construct: DsaE can utilize native BCATs present at biological concentrations (without overexpression) to perform H/D exchange; made in house; host or cells: Clarified lysate of E. coli BL21(DE3) overexpressing DsaE; the BCAT is endogenous to the host
T2 sequence (P0AB80 2-309 E236D): as the sequence (P0AB80 2-309 E236D) above
T2 sequence (as listed by the source, stated change not applied): as the sequence (as listed by the source, change not shown) above
Procedure: as §2, §3, §4

SMILES: CC(C)C[C@H](N)C(=O)O [Leu, leucine]
- deuterium labeling at Cβ (DsaD-MfnH protein pair): 58%
- exchange at Cα (DsaD-MfnH protein pair): 93%
- D-incorporation at Cα (DsaD/E lysates): > 99%
- D-incorporation at Cβ (DsaD/E lysates): 98%
- deuterium incorporation at Cβ [1]: 70%
- labeling at Cα [2]: > 95%
